Measurements published in ChEMBL document CHEMBL5576089, “Discovery of Oxidized p-Terphenyls as Phosphodiesterase 4 Inhibitors from Marine-Derived Fungi” (J Nat Prod, 2024).
One block for each compound: values may come before it. Activity calls are given as the source filed them. No cut-off for these calls is given here.

Assays:
Phosphodiesterase 4 = Phosphodiesterase 4 (Homo sapiens, UniProt P27815+Q08499+Q07343+Q08493); assay: Inhibition of PDE4 (unknown origin) using [3H]cAMP[…] as substrate incubated for 15 mins by phosphodiesterase scintillation proximity assay; type: protein assay
MRC5 [1] = assay: Anti-fibrotic activity in TGF-beta1-activated human MRC5 cells assessed as reduction in FN1 mRNA level at 5 to 20 uM incubated for 48 hrs by RT-qPCR analysis; type: functional, cell-based; conditions: dose 5-20 µM
MRC5 [2] = assay: Anti-fibrotic activity in TGF-beta1-activated human MRC5 cells assessed as reduction in COL-1 mRNA level at 5 to 20 uM incubated for 48 hrs by RT-qPCR analysis; type: functional, cell-based; conditions: dose 5-20 µM
MRC5 [3] = assay: Anti-fibrotic activity in TGF-beta1-activated human MRC5 cells assessed as reduction in alpha-SMA protein expression at 20 uM incubated for 48 hrs by DAPI staining based immunofluorescence microscopic analysis; type: functional, cell-based
MRC5 [4] = assay: Anti-fibrotic activity in TGF-beta1-activated human MRC5 cells assessed as reduction in alpha-SMA mRNA level at 5 to 20 uM incubated for 48 hrs by RT-qPCR analysis; type: functional, cell-based; conditions: dose 5-20 µM
NIH3T3 [5] = assay: Cytotoxicity against mouse NIH3T3 cells assessed as reduction in cell viability incubated for 48 hrs; type: toxicity, cell-based; conditions: nih3t3, 48 h
RAW264.7 [6] = assay: Antiinflammatory activity in LPS-induced mouse RAW264.7 cells assessed as reduction in IL-6 mRNA level at 10 to 20 uM preincubated with compound for 4 hrs followed by LPS stimulation and measured after 24 hrs by RT-qPCR analysis; type: functional, cell-based; conditions: dose 10-20 µM, time 28.0 hrs
MRC5 [7] = assay: Anti-fibrotic activity in TGF-beta1-activated human MRC5 cells assessed as reduction in COL1 protein expression at 20 uM incubated for 48 hrs by DAPI staining based immunofluorescence microscopic analysis; type: functional, cell-based
MRC5 [8] = assay: Anti-fibrotic activity in TGF-beta1-activated human MRC5 cells assessed as reduction in FN1 protein expression incubated for 48 hrs by Western blot analysis; type: functional, cell-based; conditions: dose 5-20 µM
NIH3T3 [9] = assay: Anti-fibrotic activity in TGF-beta1-induced mouse NIH3T3 cells assessed as reduction in fibronectin expression at 20 uM incubated for 48 hrs by Western blot analysis; type: functional, cell-based
MRC5 [10] = assay: Anti-fibrotic activity in TGF-beta1-activated human MRC5 cells assessed as reduction in alpha-SMA protein expression incubated for 48 hrs by Western blot analysis; type: functional, cell-based; conditions: dose 5-20 µM
RAW264.7 [11] = assay: Antiinflammatory activity in LPS-induced mouse RAW264.7 cells assessed as reduction in TNF-alpha mRNA level at 10 to 20 uM preincubated with compound for 4 hrs followed by LPS stimulation and measured after 24 hrs by RT-qPCR analysis; type: functional, cell-based; conditions: dose 10-20 µM, time 28.0 hrs
MRC5 [12] = assay: Anti-fibrotic activity in TGF-beta1-activated human MRC5 cells assessed as reduction in COL1 protein expression incubated for 48 hrs by Western blot analysis; type: functional, cell-based; conditions: dose 5-20 µM
RAW264.7 [13] = assay: Cytotoxicity against mouse RAW264.7 cells assessed as reduction in cell viability at 10 to 160 uM incubated for 48 hrs by CCK8 assay; type: toxicity, cell-based; conditions: raw264.7, 48 h, dose 10-160 µM
RAW264.7 [14] = assay: Antiinflammatory activity in LPS-induced mouse RAW264.7 cells assessed as reduction in IL-1beta mRNA level at 10 to 20 uM preincubated with compound for 4 hrs followed by LPS stimulation and measured after 24 hrs by RT-qPCR analysis; type: functional, cell-based; conditions: dose 10-20 µM, time 28.0 hrs
MRC5 [15] = assay: Anti-fibrotic activity in TGF-beta1-activated human MRC5 cells assessed as reduction in alpha-SMA mRNA level at 10 uM incubated for 48 hrs by RT-qPCR analysis; type: functional, cell-based
MRC5 [16] = assay: Anti-fibrotic activity in TGF-beta1-activated human MRC5 cells assessed as reduction in COL1 mRNA level at 10 uM incubated for 48 hrs by RT-qPCR analysis; type: functional, cell-based
MRC5 [17] = assay: Anti-fibrotic activity in TGF-beta1-activated human MRC5 cells assessed as reduction in FN1 mRNA level at 10 uM incubated for 48 hrs by RT-qPCR analysis; type: functional, cell-based

Compound: COc1c(O)c(-c2ccccc2)c(O)c(OC)c1-c1ccccc1
IC50 (Phosphodiesterase 4): 0.4 µM

Compound: COc1c(O)c(-c2ccccc2)c(O)c(OC)c1-c1ccc(O)cc1
IC50 (Phosphodiesterase 4): 0.62 µM

Compound: COc1c(O)c(-c2ccccc2)c(OC(C)=O)c(OC)c1-c1ccccc1
Activity (MRC5 [1]): Active | Activity (MRC5 [2]): Active | Activity (MRC5 [3]): Active | Activity (MRC5 [4]): Active | Activity (NIH3T3 [5]): Non-Toxic | Activity (RAW264.7 [6]): Active | Activity (MRC5 [7]): Active | Activity (MRC5 [8]): Dose-Dependent Effect | Activity (NIH3T3 [9]): Active | Activity (MRC5 [10]): Dose-Dependent Effect | Activity (RAW264.7 [11]): Active | Activity (MRC5 [12]): Dose-Dependent Effect | Activity (RAW264.7 [13]): Non-Toxic | IC50 (Phosphodiesterase 4): 1.2 µM | Activity (RAW264.7 [14]): Active

Compound: COc1c(-c2ccc(O)cc2)cc(O)c(-c2ccccc2)c1O
IC50 (Phosphodiesterase 4): 16 µM

Compound: Cc1ccc(=O)n(-c2ccccc2)c1
Activity (MRC5 [15]): Active | Activity (MRC5 [16]): Active | Activity (MRC5 [17]): Active

Second part, the compound after the results:

IC50 (Phosphodiesterase 4): 1.8 µM
Compound: COc1ccc(-c2c(OC)cc(-c3ccc(O)c(CC=C(C)C)c3)c(OC)c2O)cc1OC

IC50 (Phosphodiesterase 4): 3 µM
Compound: COc1cc(-c2ccc(O)c(CC=C(C)C)c2)c(OC)c(O)c1-c1ccc(OCC=C(C)C)c(O)c1

IC50 (Phosphodiesterase 4): 4.2 µM
Compound: COc1cc(-c2ccc(O)cc2)c(OC)c(O)c1-c1ccc(O)c(CC=C(C)C)c1 [PRENYLTERPHENYLLIN]

IC50 (Phosphodiesterase 4): 3.5 µM
Compound: COc1cc(-c2ccccc2)c(OC)c(O)c1-c1ccc(OCC=C(C)C)c(O)c1
